For one experiment, the system named is Kuramochi cells. In words: IncuCyte cell proliferation assay. The following applies: Kuramochi cells labeled with mApple-H2B, cell count 0 to 72 hours, 20 μM top concentration; read-out: IncuCyte Kuramochi RB-WT: IC50. The class given is cell-based. As for the experimental part: IncuCyte® assay was used to measure the effect of disclosed compounds on cell proliferation. Fluorescent microscopy images of cells were taken immediately after compound treatment and 72 hours later. Image analysis software was used to obtain cell counts as a function of compound concentration. Kuramochi cells labeled with mApple-H2B were seeded on 384-well assay-ready plates. Plates were placed in an IncuCyte® (Sartorius) and scanned at 0 and 72 hours. IncuCyte® software was used to count the number of fluorescent nuclei in each well. The fold change in cell count from 0 to 72 hours in wells treated with increasing compounds concentrations (10 pts, 1/2 log dilution, 20 μM top concentration) was normalized to DMSO control wells. The normalized cell counts were fit with dose response curves and a […] was calculated.

In a further experiment the target is CDK2/Cyclin E1 (Homo sapiens, UniProt P24941). In words: ADP-Glo Luminescent Kinase Assay (CDK2/E1-37C). In kind it is biochemical. The following applies: 0.18 nM CDK2/Cyclin E1, 100 μM ATP, 1.5 μM Histone H1, 37° C., 60 min pre-incubation; read-out: ADPGLO (CDK2/E1-37C): IC50. The procedure:
Inhibition of CDK2/Cyclin E1 activity by the presence of small molecules was evaluated using ADP-Glo Luminescent Kinase Assay (Promega). Activated CDK2/Cyclin E1 was incubated with its substrate Histone H1 (SignalChem H10-54N) in the kinase reaction buffer (100 μM ATP, 50 mM HEPES pH 7.5, 10 mM MgCl2, 1 mM EDTA, 2 mM DTT, 0.01% Brij35, 0.5 mg/mL BSA). Luminescence was recorded with an Envision plate reader (PerkinElmer).
Dose titrations of inhibitors in 100% DMSO were combined with 0.36 nM CDK2/Cyclin E1 in reaction buffer. The mixtures were incubated for 60 minutes at 37° C. before the addition of ATP and Histone H1 substrate to initiate the kinase reaction. The final conditions were 0.18 nM CDK2/Cyclin E1, 100 μM ATP, and 1.5 μM Histone H1. The reactions were incubated at 37° C. for 90 minutes before being stopped with the addition of ADP-Glo reagent. This mixture was incubated at room temperature for 60 minutes before Kinase Detection Solution is added to generate luminescence. The stopped reactions were analyzed on an Envision plate reader. The conversion ratios were normalized to yield % activity, plotted against compound concentration, and fit to a four-parameter equation to determine the IC50 for each compound.
(In general: ADP-Glo turns the ADP formed in a reaction into a luminescent signal.)

Bounds are passed on as bounds.

The record followed here is US20260265262A1, “CDK2 INHIBITORS AND METHODS OF USING THE SAME” (Cedilla Therapeutics, Inc., priority 2022, published 2026).

As to `CC1(C)C[C@@H]1C(=O)N1CC2(CN(C(=O)c3cncs3)C[C@H]2C(=O)N2CCN(CC3CCCCC3)C(CC(=O)NS(C)(=O)=O)C2)C1` (single isomer, unassigned) [Example I-95], the IC50 was more than 20 µM in the experiment on Kuramochi cells and more than 10 µM at CDK2/Cyclin E1.

Consider `C[C@@H](OCC12CCC(CC1)OC2)[C@H](NC(=O)[C@H]1CN(C(=O)c2cnc(O)cn2)CC12CN(C(=O)C1(C(F)(F)F)CC1)C2)C(=O)N1CCC(c2ccc(C(=O)O)c(C(F)(F)F)c2)CC1` (single isomer, unassigned) [I-89 2nd, 4-(1-(O-((2-oxabicyclo[2.2.2]octan-4-yl)methyl)-N-(6-(5-hydroxypyrazine-2-carbonyl)-2-(1-(trifluoromethyl)cyclopropane-1-carbonyl)-2,6-diazaspiro[3.4]octane-8-carbonyl)-L-threonyl)piperidin-4-yl)-2-(trifluoromethyl)benzoic acid], for which the IC50 with Kuramochi cells is more than 20 µM; at CDK2/Cyclin E1, 0.5 to 5 µM.

On to `COC(=O)c1c(F)cc(C2CCN(C(=O)[C@@H](NC(=O)[C@@H]3CN(C(=O)c4cnn(Cc5ccc(C(F)(F)F)cc5)c4)CC34CN(C(=O)C3(C(F)(F)F)CC3)C4)[C@@H](C)OCC34CCC(CC3)OC4)CC2)cc1F` (stereo in doubt) [Example I-2], for which the IC50 in the experiment on Kuramochi cells was 0.5 to 5 µM; at CDK2/Cyclin E1, less than 0.5 µM. Take `COC(=O)C(C)(C)Oc1ccc(C2CCN(C(=O)[C@@H](NC(=O)[C@@H]3CN(C(=O)c4cnn(Cc5ccc(C(F)(F)F)cc5)c4)CC34CN(C(=O)C3(C(F)(F)F)CC3)C4)[C@@H](C)OCC34CCC(CC3)OC4)CC2)cc1C(F)(F)F` (stereo in doubt) [Example I-5]: the IC50 in the experiment on Kuramochi cells was more than 20 µM; on CDK2/Cyclin E1 it was more than 10 µM. For `C[C@@H](OCC12CCC(CC1)OC2)[C@H](NC(=O)[C@@H]1CN(C(=O)c2cnn(Cc3ccccc3C(=O)O)c2)CC12CN(C(=O)C1(C(F)(F)F)CC1)C2)C(=O)NCCC1CCNCC1` (stereo in doubt) [Example I-102], in that order: more than 20 µM and 0.5 to 5 µM.

On to `C[C@@H](OCC1CCOCC1)[C@H](NC(=O)C1CN(C(=O)c2cnn(Cc3ccc(C(F)(F)F)cc3)c2)CC12CN(C(=O)C1(C(F)(F)F)CC1)C2)C(=O)N1CCC(c2ccc(C(=O)O)cc2)CC1` (stereo in doubt) [I-64 2nd, 4-(1-(O-((tetrahydro-2H-pyran-4-yl)methyl)-N—((S)-6-(1-(4-(trifluoromethyl)benzyl)-1H-pyrazole-4-carbonyl)-2-(1-(trifluoromethyl)cyclopropane-1-carbonyl)-2,6-diazaspiro[3.4]octane-8-carbonyl)-L-threonyl)piperidin-4-yl)benzoic acid], for which the values for the IC50 in the experiment with Kuramochi cells and on CDK2/Cyclin E1 were more than 20 µM and more than 10 µM, respectively. The like results for `C[C@@H](OCC12CCC(CC1)OC2)[C@H](NC(=O)[C@@H]1CN(C(=O)c2cnc(O)cn2)CC12CN(C(=O)C1(C(F)(F)F)CC1)C2)C(=O)N1CCC(c2ccc(C(F)(F)F)cc2C(=O)O)CC1` [Example I-1, 2-(1-(O-((2-oxabicyclo[2.2.2]octan-4-yl)methyl)-N—((S)-6-(5-hydroxypyrazine-2-carbonyl)-2-(1-(trifluoromethyl)cyclopropane-1-carbonyl)-2,6-diazaspiro[3.4]octane-8-carbonyl)-L-threonyl)piperidin-4-yl)-5-(trifluoromethyl)benzoic acid] were, in that order, more than 20 µM and less than 0.5 µM.

As for `C[C@@H](OCC12CCC(CC1)OC2)[C@H](NC(=O)[C@@H]1CN(C(=O)c2cnn(Cc3ccc(C(F)(F)F)cc3)c2)CC12CN(C(=O)C1(C(F)(F)F)CC1)C2)C(=O)N1CCC(c2ccccc2C(=O)O)CC1` [Example I-3, 2-(1-(O-((2-oxabicyclo[2.2.2]octan-4-yl)methyl)-N—((S)-6-(1-(4-(trifluoromethyl)benzyl)-1H-pyrazole-4-carbonyl)-2-(1-(trifluoromethyl)cyclopropane-1-carbonyl)-2,6-diazaspiro[3.4]octane-8-carbonyl)-L-threonyl)piperidin-4-yl)benzoic acid], the IC50 was 0.5 to 5 µM in the experiment with Kuramochi cells and less than 0.5 µM at CDK2/Cyclin E1. For `C[C@@H](OCC12CCC(CC1)OC2)[C@H](NC(=O)[C@@H]1CN(C(=O)c2cnn(Cc3ccc(C(F)(F)F)cc3)c2)CC12CN(C(=O)C1(C(F)(F)F)CC1)C2)C(=O)N1CCC(c2ccc(OC(C)(C)C(=O)O)c(C(F)(F)F)c2)CC1` [Example I-4], in that order: more than 20 µM and less than 0.5 µM. For `CC1(C)C[C@@H]1C(=O)N1CC2(CN(C(=O)c3cncs3)C[C@H]2C(=O)N2CCN(CC3CCCCC3)C(CC(=O)O)C2)C1` (stereo partly drawn) [Example I-6, 2-(1-(cyclohexylmethyl)-4-((S)-2-((S)-2,2-dimethylcyclopropane-1-carbonyl)-6-(thiazole-5-carbonyl)-2,6-diazaspiro[3.4]octane-8-carbonyl)piperazin-2-yl)acetic acid], in that order: more than 20 µM and more than 10 µM. The like results for `C=CCOC(=O)N1CCC2(CC1)CCN(C(=O)[C@@H](NC(=O)[C@@H]1CN(C(=O)c3cnn(Cc4ccccc4C(=O)O)c3)CC13CN(C(=O)C1(C(F)(F)F)CC1)C3)[C@@H](C)OCC13CCC(CC1)OC3)CC2` [Example I-7, 2-((4-((S)-8-(((2S,3R)-3-((2-oxabicyclo[2.2.2]octan-4-yl)methoxy)-1-(9-((allyloxy)carbonyl)-3,9-diazaspiro[5.5]undecan-3-yl)-1-oxobutan-2-yl)carbamoyl)-2-(1-(trifluoromethyl)cyclopropane-1-carbonyl)-2,6-diazaspiro[3.4]octane-6-carbonyl)-1H-pyrazol-1-yl)methyl)benzoic acid] were, in that order, more than 20 µM and less than 0.5 µM.

For the molecule `C[C@@H](OCC12CCC(CC1)OC2)[C@H](NC(=O)[C@@H]1CN(C(=O)c2cnc(O)cn2)CC12CN(C(=O)[C@H]1CC1(C)C)C2)C(=O)N1CCC(c2ccc(C(F)(F)F)cc2C(=O)O)CC1` [Example I-10], the IC50 in the experiment with Kuramochi cells is more than 20 µM; on CDK2/Cyclin E1, less than 0.5 µM. For `COC(=O)c1ccccc1C1CCN(C(=O)[C@@H](NC(=O)[C@@H]2CN(C(=O)c3cnn(Cc4ccc(C(F)(F)F)cc4)c3)CC23CN(C(=O)C2(C(F)(F)F)CC2)C3)[C@@H](C)OCC23CCC(CC2)OC3)CC1` [Example I-11, methyl 2-(1-(O-((2-oxabicyclo[2.2.2]octan-4-yl)methyl)-N—((S)-6-(1-(4-(trifluoromethyl)benzyl)-1H-pyrazole-4-carbonyl)-2-(1-(trifluoromethyl)cyclopropane-1-carbonyl)-2,6-diazaspiro[3.4]octane-8-carbonyl)-L-threonyl)piperidin-4-yl)benzoate], in that order: 0.5 to 5 µM and less than 0.5 µM. Turning to `C[C@@H](OCC1(C(=O)O)CCCCC1)[C@H](NC(=O)[C@@H]1CN(C(=O)c2cnn(Cc3ccc(C(F)(F)F)cc3)c2)CC12CN(C(=O)C1(C(F)(F)F)CC1)C2)C(=O)N1CCC(c2nccs2)CC1` [Example I-76, 1-((((2R,3S)-4-oxo-4-(4-(thiazol-2-yl)piperidin-1-yl)-3-((S)-6-(1-(4-(trifluoromethyl)benzyl)-1H-pyrazole-4-carbonyl)-2-(1-(trifluoromethyl)cyclopropanecarbonyl)-2,6-diazaspiro[3.4]octane-8-carboxamido)butan-2-yl)oxy)methyl)cyclohexanecarboxylic acid], on CDK2/Cyclin E1, the IC50 lay in the range of 5 to 10 µM. As for `C[C@H](OCC12CCC(CC1)OC2)[C@@H](NC(=O)[C@@H]1CN(C(=O)c2cnc(O)cn2)CC12CN(C(=O)C1(C(F)(F)F)CC1)C2)C(=O)N1CCC(c2ccc(C(F)(F)F)c(C(=O)O)c2)CC1` [Example I-82, 5-(1-(O-((2-oxabicyclo[2.2.2]octan-4-yl)methyl)-N—((S)-6-(5-hydroxypyrazine-2-carbonyl)-2-(1-(trifluoromethyl)cyclopropane-1-carbonyl)-2,6-diazaspiro[3.4]octane-8-carbonyl)-D-threonyl)piperidin-4-yl)-2-(trifluoromethyl)benzoic acid], the IC50 with Kuramochi cells is more than 20 µM. As to `C[C@@H](OCC12CCC(CC1)OC2)[C@@H](CN1CCC(C(=O)O)CC1)NC(=O)[C@@H]1CN(C(=O)c2cnn(Cc3ccc(C(F)(F)F)cc3)c2)CC12CN(C(=O)C1(C(F)(F)F)CC1)C2` [Example I-97, 1-((2R,3R)-3-((2-oxabicyclo[2.2.2]octan-4-yl)methoxy)-2-((S)-6-(1-(4-(trifluoromethyl)benzyl)-1H-pyrazole-4-carbonyl)-2-(1-(trifluoromethyl)cyclopropane-1-carbonyl)-2,6-diazaspiro[3.4]octane-8-carboxamido)butyl)piperidine-4-carboxylic acid], at CDK2/Cyclin E1, the IC50 was more than 10 µM.
